Measurements as given in patent US20040072315A1, “Integrin-binding chimeras” (priority 2003, published 2004).
Where a SMILES comes first, the peptide text is derived from it. Bridges are numbered along the chain shown (N, C = ends). [ ]: non-standard residue; d: D form. hArg = N=C(N)NCCCC[C@H](N)C(=O)O; Mpa = O=C(O)CCS

Assays:
[1] = biological target: integrin αIIbβ3 (glycoprotein GP IIb/IIIa) on human platelets (human) (UniProt P08514); experiment: cell-based or functional assay
platelets = experiment: collagen-induced platelet aggregation; type: cell-based, human; conditions: for IC50: molar value (MW of Repro assumed 42 Kd, Integrilin 720d), read-out: Inhibition of collagen-induced platelet aggregation
Procedure: Platelet aggregation was measured by the increase in light transmission as described previously. Briefly, PRP was prepared from citrated human blood, obtained from healthy individuals, by centrifugation at 200×g for 15 mins. […]

[2] = tested on: platelets in PRP from citrated human blood; experiment: ADP-induced platelet aggregation in PRP (light transmission); type: cell-based; conditions: 10 μM ADP; for IC50: molar value (MW of Repro assumed 42 Kd, Integrilin 720d), read-out: Inhibition of ADP-induced platelet aggregation
Procedure: Platelet aggregation was measured by the increase in light transmission as described previously. Briefly, PRP was prepared from citrated human blood, obtained from healthy individuals, by centrifugation at 200×g for 15 mins. Platelet aggregation was induced with 10 μM ADP and measured using a Payton Dual-Aggregometer linked to a chart recorder.
The efficacy of wild-type and five variants of dendroaspin was assessed using ADP-induced platelet aggregation in PRP. The percentage of inhibition of platelet aggregation by these mutant dendroaspins was compared with wild-type dendroaspin and the inhibition of platelet aggregation expressed as IC50 values.

factor Xa [3] = biological target: factor Xa (Homo sapiens, UniProt P00742); conditions: slow, tight-binding inhibitor; cited from earlier work
Sequence of factor Xa (Homo sapiens, UniProt P00742) (P00742 235-488 limits assumed): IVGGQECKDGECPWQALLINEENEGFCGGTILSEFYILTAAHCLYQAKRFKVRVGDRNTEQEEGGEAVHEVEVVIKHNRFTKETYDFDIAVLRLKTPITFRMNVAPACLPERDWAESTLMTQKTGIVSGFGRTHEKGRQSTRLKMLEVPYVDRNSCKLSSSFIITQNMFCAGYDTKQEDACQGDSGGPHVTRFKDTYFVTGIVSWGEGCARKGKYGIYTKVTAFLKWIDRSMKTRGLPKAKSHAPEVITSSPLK
Sequence of factor Xa (Homo sapiens, UniProt P00742) (P00742 41-179 partner limits assumed): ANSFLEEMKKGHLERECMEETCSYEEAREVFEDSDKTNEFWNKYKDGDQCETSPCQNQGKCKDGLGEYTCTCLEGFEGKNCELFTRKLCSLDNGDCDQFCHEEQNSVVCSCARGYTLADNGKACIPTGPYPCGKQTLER

factor Xa [4] = experiment: single-stage chromogenic assay of factor Xa inhibition (S-2765); type: biochemical; conditions: chromogenic substrate S-2765, 30 min preincubation; for IC50: read-out: Anti-Xa
Procedure: A single-stage chromogenic assay of factor Xa inhibition was used to determine this recombinant molecule. Clotting factor Xa was diluted to […] in 10 mM Hepes (pH 7.5) containing 0.1% bovine serum albumin and 150 mM NaCl (HBSA). Fifty microliters of sample (diluted at vary concentrations into HSBA) were incubated for 30 min at room temperature with 100 μl of factor Xa in a 96-well microtiter plate. Fifty microliters of 1 mM S-2765, a chromogenic substrate for factor Xa, was then added, and the initial rate (mOD per min) of substrate hydrolysis over 5 min was measured at 405/650 nm by using a automated plate reader.

[5] = tested on: factor VIIa, kallikrein, trypsin, chymotrypsin, thrombin, urokinase, plasmin, tissue plasminogen activator, elastase, Staphylococcus aureus V8 protease; conditions: 300-fold molar excess; cited from earlier work
[6] = tested on: 11 other serine proteases; conditions: only protease inhibited among 11 other serine proteases; cited from earlier work

Dendroaspin (ligand)
Inhibition of ADP-induced platelet aggregation [1]: 1.2 µg/mL

Repro: also known as 7E3, a known inhibitor of integrin-mediated binding; MW assumed 42 Kd
Inhibition of collagen-induced platelet aggregation (platelets): 3.80 µg/mL
IC50 (platelets): 90 nM
Inhibition of ADP-induced platelet aggregation [2]: 3.2 µg/mL
IC50 [2]: 76 nM

N=C(N)NCCCC[C@@H]1NC(=O)CCSSC[C@@H](C(N)=O)NC(=O)[C@@H]2CCCN2C(=O)[C@H](Cc2c[nH]c3ccccc23)NC(=O)[C@H](CC(=O)O)NC(=O)CNC1=O [Integrilin] ([Mpa][hArg]GDWPC-NH2; disulfide 1-7)
Inhibition of collagen-induced platelet aggregation (platelets): 0.23 µg/mL
IC50 (platelets): 319 nM
Inhibition of ADP-induced platelet aggregation [2]: 0.2 µg/mL
IC50 [2]: 277 nM

TAP: tick anticoagulant peptide from Ornithodoros moubata, factor Xa inhibitor (YNRLCIKPRDWIDECDSNEGGERAYFRNGKGGCDSFWICPEDHTGADYYSSYRDCFNACI)
Ki (factor Xa [3]): 0.588 nM
Anti-Xa (factor Xa [4]): 0.02 to 0.07 µg/mL
IC50 (factor Xa [4]): 2.8 to 10 nM
effect on other proteases [5]: no effect

B1: NAP5: anticoagulant protein of hookworm Ancylostoma caninum, SEQ ID NO:28 (protein)
chain: KAYPECGENEWLDDCGTQKPCEAKCNEEPPEEEDPICRSRGCLLLPACVCKDGFYRDTVIGDCVREEECDQHEIIH
modifications: Description of Artificial Sequence: NAP portion of ND9
inhibition of Factor Xa [6]: 50%

B2: ND9-M3: cleaved ND9 with a fragment of NAP5 linked to dendroaspin, SEQ ID NO:30 (protein)
chain: RSRGCLLLPACVCKDGFYRDTVIGDCVREEECDQHEIIHVGGGGPGPGGGPGGRICYNHLGTKPPTTETCQEDSCYKNIWTFDNIIRRGCGCFTARGDMPGPYCCESDNCNL
modifications: Descriotion of Artificial Sequence: protein fragment ND9-F3
Inhibition of collagen-induced platelet aggregation (platelets): 3.90 µg/mL
IC50 (platelets): 240 nM
Anti-Xa (factor Xa [4]): 2.3 µg/mL
IC50 (factor Xa [4]): 141 nM
Inhibition of ADP-induced platelet aggregation [2]: 4.2 µg/mL
IC50 [2]: 260 nM
